Here are results for 1 compound from ChEMBL document CHEMBL4619760, “Anti-inflammatory Efficacy of Combined Natural Alkaloid Berberine and S1PR Modulator Fingolimod at Low Doses in Ulcerative Colitis Preclinical Models” (J Nat Prod, 2020).

Each structure is given as a SMILES string. Calls of active or inactive are those of the source. No cut-off for these calls is given here.

For series [1], the system named is Mus musculus. Kind of series: Anti-colitis activity against DSS-induced C57BL/6 mouse model of subchronic relapsing colitis assessed as reduction in stool consistency scores at 0.3 mg/kg, po administered once daily for 14 days starting from day 5 post DSS challenge and measured on day 19. It is filed as functional, organism-based.
The test system of series [2] is Mus musculus. Kind of series: Anti-colitis activity against DSS-induced C57BL/6 mouse model of subchronic relapsing colitis assessed as reduction in stool consistency score at 0.15 mg/kg, po administered once daily for 14 days starting from day 5 post DSS-challenge cotreated with 20 mg/kg berberine and measured after day 12 to day 18. It is filed as functional, organism-based.

The test system of series [3] is Mus musculus. Kind of series: Anti-colitis activity against DSS-induced C57BL/6 mouse model of subchronic relapsing colitis assessed as reduction in disease activity index at 0.3 mg/kg, po administered once daily for 14 days starting from day 5 post DSS challenge and measured on day 19. It is filed as functional, organism-based.
The subject of series [4] is Mus musculus. Kind of series: Anti-colitis activity against DSS-induced C57BL/6 mouse model of subchronic relapsing colitis assessed as reduction in colon swelling at 0.15 mg/kg, po administered once daily for 14 days starting from day 5 post DSS-challenge cotreated with 20 mg/kg berberine and measured after day 12 to day 18. The format is functional, organism-based.

For series [5], the system named is Mus musculus. Kind of series: Anti-colitis activity against DSS-induced C57BL/6 mouse model of chronic relapsing colitis assessed as reduction in stool bleeding at 0.3 mg/kg, po administered once daily for 30 days starting from day 13 post DSS-challenge measured on day 38. It is filed as functional, organism-based.
In series [6] the test system is Mus musculus. Kind of series: Anti-colitis activity against DSS-induced C57BL/6 mouse model of chronic relapsing colitis assessed as reduction in disease activity index at 0.3 mg/kg, po administered once daily for 30 days starting from day 13 post DSS-challenge and measured on day 24. The format is functional, organism-based.
The test system of series [7] is Mus musculus. Kind of series: Anti-colitis activity against DSS-induced C57BL/6 mouse model of chronic relapsing colitis assessed as reduction in stool consistency score at 0.15 mg/kg, po administered once daily for 30 days starting from day 13 post DSS-challenge cotreated with 20 mg/kg berberine measured on day 24. The format is functional, organism-based.
For series [8], the system named is Mus musculus. Kind of series: Anti-colitis activity against DSS-induced C57BL/6 mouse model of chronic relapsing colitis assessed as reduction in DSS-induced spleen swelling at 0.3 mg/kg, po administered once daily for 30 days starting from day 13 post DSS-challenge. It is filed as functional, organism-based.
In series [9] the test system is Mus musculus. Kind of series: Anti-colitis activity against DSS-induced C57BL/6 mouse model of chronic relapsing colitis assessed as reduction in DSS-induced multiple erosive lesions in colon at 0.3 mg/kg, po administered once daily for 30 days starting from day 13 post DSS-challenge. It is filed as functional, organism-based.
In series [10] the test system is Mus musculus. Kind of series: Anti-colitis activity against DSS-induced C57BL/6 mouse model of chronic relapsing colitis assessed as reduction in DSS-induced mononuclear cell infiltration in spleen at 0.3 mg/kg, po administered once daily for 30 days starting from day 13 post DSS-challenge by hematoxylin and eosin staining based light microscopic analysis. The format is functional, organism-based.

A short description of series [11]: Toxicity in DSS-induced C57BL/6 mouse model of chronic relapsing colitis assessed as induction of abnormalities in kidney at 0.3 mg/kg, po administered once daily for 30 days starting from day 13 post DSS-challenge by hematoxylin and eosin staining based light microscopic analysis. It is filed as organism-based. The note with it: in vivo, 720 h.
Series [12] in a line: Toxicity in DSS-induced C57BL/6 mouse model of chronic relapsing colitis assessed as induction of abnormalities in liver at 0.15 mg/kg, po administered once daily for 30 days starting from day 13 post DSS-challenge cotreated with 20 mg/kg berberine by hematoxylin and eosin staining based light microscopic analysis. The settings on record: in vivo, 720 h. The format is organism-based.

Series [13] can be described thus: Toxicity in DSS-induced C57BL/6 mouse model of chronic relapsing colitis assessed as induction of abnormalities in kidney at 0.15 mg/kg, po administered once daily for 30 days starting from day 13 post DSS-challenge cotreated with 20 mg/kg berberine by hematoxylin and eosin staining based light microscopic analysis. It is filed as organism-based. The settings on record: in vivo, 720 h.

Series [14] is described as follows: Toxicity in DSS-induced C57BL/6 mouse model of chronic relapsing colitis assessed as induction of abnormalities in brain at 0.15 mg/kg, po administered once daily for 30 days starting from day 13 post DSS-challenge cotreated with 20 mg/kg berberine by hematoxylin and eosin staining based light microscopic analysis. The format is organism-based. The note with it: in vivo, 720 h.

Series [15] in a line: Toxicity in DSS-induced C57BL/6 mouse model of chronic relapsing colitis assessed as induction of abnormalities in lung at 0.15 mg/kg, po administered once daily for 30 days starting from day 13 post DSS-challenge cotreated with 20 mg/kg berberine by hematoxylin and eosin staining based light microscopic analysis. The note with it: in vivo, 720 h. It is filed as organism-based.

In series [16] the test system is Mus musculus. Kind of series: Antiinflammatory activity against DSS-induced C57BL/6 mouse model of subchronic relapsing colitis assessed as reduction in IL6 mRNA level at 0.3 mg/kg, po administered once daily for 14 days starting from day 5 post DSS-challenge by RT-qPCR analysis. The format is functional, organism-based.
Series [17] relates to Mus musculus. Kind of series: Antiinflammatory activity against DSS-induced C57BL/6 mouse model of subchronic relapsing colitis assessed as reduction in S1PR1 mRNA level at 0.3 mg/kg, po administered once daily for 14 days starting from day 5 post DSS-challenge by RT-qPCR analysis. It is filed as functional, organism-based. (In general: Quantitative PCR measures a nucleic acid by following its amplification.)

In series [18] the test system is Mus musculus. Kind of series: Antiinflammatory activity against DSS-induced C57BL/6 mouse model of subchronic relapsing colitis assessed as reduction in S1PR1 mRNA level at 0.15 mg/kg, po administered once daily for 14 days starting from day 5 post DSS-challenge cotreated with 20 mg/kg berberine by RT-qPCR analysis. The format is functional, organism-based.
Series [19] concerns Mus musculus. Kind of series: Effect on total S1PR1 expression in DSS-induced C57BL/6 mouse model of subchronic relapsing colitis at 0.3 mg/kg, po administered once daily for 14 days starting from day 5 post DSS-challenge by Western blot analysis. The format is ADME, organism-based. The settings on record: in vivo, 336 h. (In general: Immunoblotting shows a protein as a band on a membrane.)

Series [20] has as its system Mus musculus. Kind of series: Effect on total STAT3 expression in DSS-induced C57BL/6 mouse model of subchronic relapsing colitis at 0.15 mg/kg, po administered once daily for 14 days starting from day 5 post DSS-challenge cotreated with 20 mg/kg berberine by Western blot analysis. The format is ADME, organism-based. The settings on record: in vivo, 336 h.

As for `CCCCCCCCc1ccc(CCC(N)(CO)CO)cc1.Cl` [FINGOLIMOD HYDROCHLORIDE], the result in the series on Mus musculus [1], in the series with Mus musculus [2], in the series with Mus musculus [3], in the series on Mus musculus [5], with Mus musculus [6] and in the series with Mus musculus [7] was Active. Further, the outcome in the series on Mus musculus [8], in the series on Mus musculus [9], in the series with Mus musculus [10], in the series with Mus musculus [16], in the series on Mus musculus [17] and in the series with Mus musculus [18] was Active. Further, the outcome in the series on Mus musculus [4] was inactive. Also, the Activity entry (in series [11]; in series [12]; in [13]; in [14]; in series [15]; in the series with Mus musculus [19]) was “Non-Toxic” in each case. The Activity result in the series on Mus musculus [20] is given as “Non-Toxic”.
